Where two headings read alike, the source gives them in different places.
Columns and labels:
[1] = tested on: Spontaneously hypertensive rats; test: SHR Assay (anti-hypertensive); assay type: in vivo, rat (spontaneously hypertensive); conditions: for Mean Drop (systolic blood pressure): dose 100, oral
Protocol: Spontaneously hypertensive rats, 12 to 16 weeks of age, were used in this assay. Systolic blood pressures were determined by the tail cuff method, utilizing capacitance transducers for the detection of pressure, an aneroid manometer for measuring pressure, and an oscilloscope for visualizing the disappearance and/or appearance of the pressure pulse. Heart rate was measured by a biotachometer. Groups of five rats having systolic blood pressures of 170 mmHg or greater were chosen and the test compounds administered at the doses indicated below (oral) as a solution or suspension in 0.25% methylcellulose (MC) at a volume of 5 ml/kg. One group served as the control and received the vehicle. Twenty-four hours after dosing, systolic blood pressure and heart rate were recorded. A second dose of compound was administered and blood pressure and heart rate determined at 4 and 24 hours after the second dose.

[2] = tested on: phenylquinone writhing in mice; test: Phenylquinone Writhing Assay (analgesia); assay type: in vivo, mouse (Carworth CF1 male mice); conditions: for responders at 12.5 mg/kg: 12.5 mg/kg oral; for responders at 25 mg/kg: 25 mg/kg oral; for responders at 50 mg/kg: 50 mg/kg oral; for responders at 15 mg/kg: 15 mg/kg oral; for responders at 10 mg/kg: 10 mg/kg oral
Outline: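 Male CF1 mice (ten per group) dosed orally in 0.25% methylcellulose, then challenged i.p. with 0.02% phenylquinone at 15, 30, 60 or 120 min post-dose. Mice showing no writhing over 10 min count as protected; percent analgesia = number protected ×10.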

[3] = tested on: carrageenin-induced edema in the hind paw of a rat; test: Carrageenin Assay (carrageenin-induced edema, hind paw); assay type: in vivo, rat (male, Long Evans strain); conditions: 1 h before carrageenin, edema at 3 h, compared to phenylbutazone control values; for inhibition in vivo at 40 mg/kg: 40 mg/kg oral
Protocol: The procedure employed is a modification of the method of Winter et al, Proc. Soc. Exptl. Biol. Med. 111:544 (1962). The device used for measurement of the paw volume is an adaptation of the water displacement procedure described by Adamkiewicz et al, Can. J. Biochem. Physiol. 33:332 (1955). Test compounds were administered orally, one hour prior to the intraplantar injection of 0.05 ml. of sterile 1.0 percent solution of carrageenin into the left hind paw of male rats (Long Evans strain) weighing between about 130-200 grams. At peak swelling time (3 hours) the volume of edema was calculated by differential paw volumes.
Table I sets forth the results obtained (indicated as percent reduction of edema compared to phenylbutazone control values) at the indicated dosages for each of the identified compounds.

tuberculostatic = conditions: in vitro (J. Chem. Soc., 1956, 713-16); cited from earlier work
yeast induced fever = test: Antipyretic Assay (yeast induced fever); assay type: in vivo; conditions: for temps. at 191/2 hrs. / temps. at 18 hrs. (Test Compounds Administered) / temps. at 0 hr.: 100 mg/kg; for temps. at 191/2 hrs.: 1 1/2 hrs. after administration; for temps. at 18 hrs. (Test Compounds Administered): at time of administration; for temps. at 0 hr.: before yeast fever and compound
Protocol: As indicated previously, certain of the compounds of the invention also display excellent antipyretic activity. […] Antipyretic activity was measured utilizing the conventional yeast induced fever assay procedure (15% yeast solution injected at two sites).

[4] = tested on: adjuvant-induced arthritis, hind paw of the rat; test: Adjuvant-Arthritis Assay; assay type: in vivo
antihypertensive = conditions: Burger, Medicinal Chemistry, 3rd Ed., 1027; cited from earlier work
[5] = tested on: central nervous system activity in mice; test: Neuropharmacological Profile; assay type: in vivo, mouse (white male Carworth Farm Strain CF-1); conditions: 300,100,30,10 mg/kg intraperitoneal
Protocol: The central nervous system activity of certain of the preferred compounds in accordance with the present invention were determined using the following neuropharmacological profile assay procedures.
White male mice of the Carworth Farm Strain (CF-1) weighing 18-22 grams were used in these determinations. […] Intraperitoneal injections were administered in logarithmic progression and sequentially. The dose levels employed routinely are 10, 30, 100, and 300 mg/kg, using four male mice at each dose level. Since this test was conducted in a sequential manner, the first dose administered was at 300 mg/kg. The mice were injected at this dose level and observed for gross changes produced by the drug, such as behavioral, neurological, autonomic, and toxic effects.
The animals were observed continuously for one hour and if no signs of pharmacological or toxicological activity were present at the end of the first hour, they were intermittently checked for activity every fifteen minutes thereafter for two consecutive hours. […] Subsequent dose levels below 300 mg/kg were not administered in this case. Alternatively, if demonstrable pharmacological changes occurred within the first three hours after administration of the drug at 300 mg/kg, the subsequent doses were administered and the animals observed for changes in overt behavior. The observation period begins immediately following the injection and the animals are then continuously observed for three hours and intermittently checked thereafter for forty-eight hours. The animals were observed and signs and symptoms of pharmacological activity were recorded continuously until no further symptoms developed and until the symptoms that had appeared were no longer present. […] It was very important that the animals were free to move about for evaluation of spacial orientation, alertness, and spontaneous motor activity. The animals were systematically observed and manipulated to measure the onset, peak effect, duration and character of drug action.
The major characteristics observed relative to central nervous system activity for the compounds indicated are summarized in the following Table IV.

[6] = Mus musculus, po, 0.25 h, 15 Min., read-out: Phenylquinone Writhing Assay (% Control), percent analgesia
[7] = Mus musculus, po, 0.5 h, 30 Min., read-out: Phenylquinone Writhing Assay (% Control), percent analgesia
[8] = Mus musculus, po, 1 h, 60 Min, read-out: Phenylquinone Writhing Assay (% Control), percent analgesia
[9] = Rattus norvegicus, read-out: % Reduction of Edema

3-Methylhydrazino-5-Phenyl-1,2,4-Triazine [Example 3A]
Mean Drop (systolic blood pressure) ([1]; 4 hr.): 0 mm/Hg.
Mean Drop (systolic blood pressure) ([1]; 24 hr.): 49 mm/Hg.
Mean Drop (systolic blood pressure) ([1]; second 4 hr. column (after second dose)): 56 mm/Hg.
Mean Drop (systolic blood pressure) ([1]; second 24 hr column (after second dose)): 92 mm/Hg.
Phenylquinone Writhing Assay (% Control), percent analgesia ([2]; 100 mg/kg oral, 15 Min.): 60%
Phenylquinone Writhing Assay (% Control), percent analgesia ([2]; 100 mg/kg oral, 30 Min.): 30%
Phenylquinone Writhing Assay (% Control), percent analgesia ([2]; 100 mg/kg oral, 60 Min): 30%
% Reduction of Edema ([3]; 100 mg/kg oral): 76%

Cc1nnc(S)nc1C [3-mercapto-5,6-dimethyl-1,2,4-triazine]
tuberculostatic activity (tuberculostatic): tuberculostatic in vitro

CC(=O)Oc1ccccc1C(=O)O [Aspirin, reference compound]
temps. at 191/2 hrs. (yeast induced fever): 37.8
temps. at 18 hrs. (Test Compounds Administered) (yeast induced fever): 38.8
temps. at 0 hr. (yeast induced fever): 38.0

COc1nncc(-c2ccccc2)n1 [Example 2, 3-methoxy-5-phenyl-1,2,4-triazine]
Adjuvant-Arthritis Assay (% Reduction) ([4]; 40 mg/kg oral once daily, Day 3, developing disease): 39%
Adjuvant-Arthritis Assay (% Reduction) ([4]; 40 mg/kg oral once daily, Day 10, developing disease): 23%
Adjuvant-Arthritis Assay (% Reduction) ([4]; 40 mg/kg oral once daily, Day 17, developing disease): 0%
Adjuvant-Arthritis Assay (% Reduction) ([4]; 80 mg/kg oral once daily, Day 3, developing disease): 40%
Adjuvant-Arthritis Assay (% Reduction) ([4]; 80 mg/kg oral once daily, Day 10, developing disease): 18%
Adjuvant-Arthritis Assay (% Reduction) ([4]; 80 mg/kg oral once daily, Day 17, developing disease): 0%
Adjuvant-Arthritis Assay (% Reduction) ([4]; 120 mg/kg oral once daily, Day 3, developing disease): 30%
Adjuvant-Arthritis Assay (% Reduction) ([4]; 120 mg/kg oral once daily, Day 10, developing disease): 13%
Adjuvant-Arthritis Assay (% Reduction) ([4]; 120 mg/kg oral once daily, Day 17, developing disease): 21%
responders at 12.5 mg/kg [2, 6]: 10%
responders at 25 mg/kg [2, 6]: 40%
responders at 50 mg/kg [2, 6]: 90%
responders at 12.5 mg/kg [2, 7]: 30%
responders at 25 mg/kg [2, 7]: 60%
responders at 50 mg/kg [2, 7]: 80%
responders at 12.5 mg/kg [2, 8]: 30%
responders at 25 mg/kg [2, 8]: 50%
responders at 50 mg/kg [2, 8]: 70%
inhibition in vivo at 200 mg/kg ([3]; Rattus norvegicus, 200 mg/kg oral, read-out: % Reduction of Edema): 86%
temps. at 191/2 hrs. (yeast induced fever): 35.3
temps. at 18 hrs. (Test Compounds Administered) (yeast induced fever): 39.0
temps. at 0 hr. (yeast induced fever): 38.1
antipyretic activity (yeast induced fever; compared to aspirin): comparable in activity to aspirin

NNc1nncc(-c2ccccc2)n1 [Example 3, 3-hydrazino-5-phenyl-1,2,4-triazine]
antihypertensive activity (antihypertensive): moderately active antihypertensive agent
responders at 100 mg/kg ([2]; Mus musculus, po, 0.25 h, 100 mg/kg oral, 15 Min., read-out: Phenylquinone Writhing Assay (% Control), percent analgesia): 100%
responders at 30 mg/kg ([2]; Mus musculus, po, 0.5 h, 30 mg/kg oral, 30 Min., read-out: Phenylquinone Writhing Assay (% Control), percent analgesia): 30%
responders at 70 mg/kg ([2]; Mus musculus, po, 0.5 h, 70 mg/kg oral, 30 Min., read-out: Phenylquinone Writhing Assay (% Control), percent analgesia): 90%
inhibition in vivo at 40 mg/kg [3, 9]: 55%
CNS Activity [5]: Antidepressant

O=C(NNc1nncc(-c2ccccc2)n1)C(F)(F)F [Example 7, 3-trifluoroacetyl hydrazino-5-phenyl-1,2,4-triazine]
duration of activity (hypotensive) ([1]; rat, in vivo): long duration of activity
onset of action (hypotensive) ([1]; rat, in vivo): advantageous rapid onset of action
Adjuvant-Arthritis Assay (% Reduction) ([4]; 50 mg/kg oral once daily, Day 3, developing disease): 30%
Adjuvant-Arthritis Assay (% Reduction) ([4]; 50 mg/kg oral once daily, Day 10, developing disease): 30%
Adjuvant-Arthritis Assay (% Reduction) ([4]; 50 mg/kg oral once daily, Day 17, developing disease): 39%
Adjuvant-Arthritis Assay (% Reduction) ([4]; 50 mg/kg oral, Day 20, established disease): 4%
Adjuvant-Arthritis Assay (% Reduction) ([4]; 50 mg/kg oral, Day 27, established disease): 24%
Adjuvant-Arthritis Assay (% Reduction) ([4]; 50 mg/kg oral, Day 31, established disease): 29%
responders at 15 mg/kg [2, 6]: 50%
responders at 15 mg/kg [2, 8]: 10%
inhibition in vivo at 150 mg/kg ([3]; Rattus norvegicus, 150 mg/kg oral, read-out: % Reduction of Edema): 41%

Cc1nnc(NN)nc1C [Example 25, 3-hydrazino-5,6-dimethyl-1,2,4-triazine]
responders at 10 mg/kg [2, 6]: 20%
responders at 10 mg/kg [2, 7]: 10%
responders at 12.5 mg/kg [2, 7]: 20%
responders at 25 mg/kg [2, 7]: 90%
inhibition in vivo at 40 mg/kg [3, 9]: 46%
CNS Activity [5]: Antidepressant

From patent publication US4157392A, “Pharmacologically active substituted 1,2,4-triazines” (Diamond Shamrock Corporation, priority 1978, dated 1979)
